Columns and labels:
Settings in all cases: 48 h
NOMO1 [1] = assay: cell viability relative to DMSO control; higher = less cytotoxic
How it was run: (§1)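 Three leukemia lines were tested: NOMO1 and SEM at 500 cells/well and P12-Ichikawa at 1000 cells/well. Each was adapted for at least four passages in each medium and seeded in 5 μl in 1536-well plates, and library compounds in DMSO were pin-dosed from 47 μM to 0.79 nM in 11 threefold steps. After 48 h at 37°C, CellTiter-Glo One luminescence was read. Viability is a percentage relative to DMSO wells on each plate, with cell-free wells as background.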

P12-Ichikawa [2] = assay: as above
How it was run: as §1

SEM cells [3] = assay: as above
How it was run: as §1

NOMO1 [4] = assay: AUC of viability dose-response curve (% viability x log10 dose units); higher = less sensitive
How it was run: (§2)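 Leukemia cells adapted to each medium were seeded in 1536-well plates (500 or 1000 cells/well). They were dosed with library compounds in DMSO at 11 threefold doses, 47 μM to 0.79 nM, for 48 h at 37°C. CellTiter-Glo One luminescence was normalised per plate to DMSO and cell-free wells. Area under the curve was integrated by trapezoidal rule over log10 doses on a four-parameter log-logistic fit; curves exceeding full viability were scaled and curves failing quality control removed.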

P12-Ichikawa [5] = assay: as above
How it was run: as §2

SEM cells [6] = assay: as above
How it was run: as §2

CC(=O)O.Cc1c(-c2ccc(O)cc2)n(Cc2ccc(OCCN3CCCCCC3)cc2)c2ccc(O)cc12
cell viability [%]
Settings | NOMO1 [1] | P12-Ichikawa [2] | SEM cells [3]
HPLM + 10% dialyzed FBS, 0.000781 µM | 95.5 | 103 | 88.5
HPLM + 10% dialyzed FBS, 0.00234 µM | 106 | 101 | 50
HPLM + 10% dialyzed FBS, 0.00702 µM | 92.7 | 99.2 | 91.9
HPLM + 10% dialyzed FBS, 0.0211 µM | 95.6 | 98.1 | 92
HPLM + 10% dialyzed FBS, 0.0632 µM | 89.6 | 101 | 99.7
HPLM + 10% dialyzed FBS, 0.19 µM | 102 | 111 | 112
HPLM + 10% dialyzed FBS, 0.569 µM | 111 | 101 | 102
HPLM + 10% dialyzed FBS, 1.71 µM | 103 | 106 | 101
HPLM + 10% dialyzed FBS, 5.12 µM | 106 | 106 | 93.5
HPLM + 10% dialyzed FBS, 15.4 µM | 94.1 | 101 | 117
HPLM + 10% dialyzed FBS, 46.1 µM | 92.5 | 100 | 99.5
RPMI 5 mM glucose + 10% FBS, 0.000781 µM | 86.3 | 92.3 | 92
RPMI 5 mM glucose + 10% FBS, 0.00234 µM | 103 | 92.5 | 46.9
RPMI 5 mM glucose + 10% FBS, 0.00702 µM | 92.3 | 92.4 | 89
RPMI 5 mM glucose + 10% FBS, 0.0211 µM | 92.7 | 87.6 | 98.7
RPMI 5 mM glucose + 10% FBS, 0.0632 µM | 88.5 | 99.3 | 86.6
RPMI 5 mM glucose + 10% FBS, 0.19 µM | 105 | 103 | 95.4
RPMI 5 mM glucose + 10% FBS, 0.569 µM | 92.3 | 96.1 | 89.2
RPMI 5 mM glucose + 10% FBS, 1.71 µM | 87.5 | 109 | 95.5
RPMI 5 mM glucose + 10% FBS, 5.12 µM | 96.5 | 101 | 86.9
RPMI 5 mM glucose + 10% FBS, 15.4 µM | 93.9 | 100 | 92.5
RPMI 5 mM glucose + 10% FBS, 46.1 µM | 88.6 | 101 | 94.4
RPMI 5 mM glucose + 10% dialyzed FBS, 0.000781 µM | 97.5 | 89.2 | 90.2
RPMI 5 mM glucose + 10% dialyzed FBS, 0.00234 µM | 97.9 | 94.5 | 41.7
RPMI 5 mM glucose + 10% dialyzed FBS, 0.00702 µM | 91.4 | 96.3 | 93.8
RPMI 5 mM glucose + 10% dialyzed FBS, 0.0211 µM | 96 | 94.5 | 99.6
RPMI 5 mM glucose + 10% dialyzed FBS, 0.0632 µM | 99.2 | 92.5 | 81.2
RPMI 5 mM glucose + 10% dialyzed FBS, 0.19 µM | 107 | 98.9 | 102
RPMI 5 mM glucose + 10% dialyzed FBS, 0.569 µM | 103 | 98.3 | 101
RPMI 5 mM glucose + 10% dialyzed FBS, 1.71 µM | 98.1 | 95.4 | 94.1
RPMI 5 mM glucose + 10% dialyzed FBS, 5.12 µM | 102 | 113 | 110
RPMI 5 mM glucose + 10% dialyzed FBS, 15.4 µM | 101 | 104 | 119
RPMI 5 mM glucose + 10% dialyzed FBS, 46.1 µM | 86.7 | 100 | 101

AUC of viability dose-response curve
Settings | NOMO1 [4] | P12-Ichikawa [5] | SEM cells [6]
HPLM + 10% dialyzed FBS | 472 | 472 | 449
RPMI 5 mM glucose + 10% FBS | 446 | 459 | 423
RPMI 5 mM glucose + 10% dialyzed FBS | 469 | 446 | 418

Oc1ccc2c3c1O[C@H]1c4[nH]c5c(c4C[C@@]4(O)[C@@H](C2)N(CC2CC2)CC[C@]314)C[C@@]1(O)[C@H]2Cc3ccc(O)c4c3[C@@]1(CCN2CC1CC1)[C@H]5O4
cell viability [%]
Settings | NOMO1 [1] | P12-Ichikawa [2] | SEM cells [3]
HPLM + 10% dialyzed FBS, 0.000781 µM | 92.7 | 100 | 70.3
HPLM + 10% dialyzed FBS, 0.00234 µM | 104 | 111 | 88.3
HPLM + 10% dialyzed FBS, 0.00702 µM | 114 | 113 | 101
HPLM + 10% dialyzed FBS, 0.0211 µM | 116 | 117 | 92.6
HPLM + 10% dialyzed FBS, 0.0632 µM | 116 | 120 | 108
HPLM + 10% dialyzed FBS, 0.19 µM | 136 | 118 | 99.4
HPLM + 10% dialyzed FBS, 0.569 µM | 108 | 130 | 98.4
HPLM + 10% dialyzed FBS, 1.71 µM | 115 | 121 | 107
HPLM + 10% dialyzed FBS, 5.12 µM | 129 | 120 | 113
HPLM + 10% dialyzed FBS, 15.4 µM | 132 | 119 | 113
HPLM + 10% dialyzed FBS, 46.1 µM | 131 | 121 | 119
RPMI 5 mM glucose + 10% FBS, 0.000781 µM | 99.8 | 114 | 86.9
RPMI 5 mM glucose + 10% FBS, 0.00234 µM | 122 | 123 | 80.2
RPMI 5 mM glucose + 10% FBS, 0.00702 µM | 110 | 118 | 102
RPMI 5 mM glucose + 10% FBS, 0.0211 µM | 116 | 122 | 85.7
RPMI 5 mM glucose + 10% FBS, 0.0632 µM | 128 | 122 | 123
RPMI 5 mM glucose + 10% FBS, 0.19 µM | 118 | 124 | 119
RPMI 5 mM glucose + 10% FBS, 0.569 µM | 125 | 115 | 123
RPMI 5 mM glucose + 10% FBS, 1.71 µM | 120 | 126 | 128
RPMI 5 mM glucose + 10% FBS, 5.12 µM | 116 | 127 | 131
RPMI 5 mM glucose + 10% FBS, 15.4 µM | 123 | 137 | 119
RPMI 5 mM glucose + 10% FBS, 46.1 µM | 134 | 132 | 123
RPMI 5 mM glucose + 10% dialyzed FBS, 0.000781 µM | 98 | 97.8 | 89.5
RPMI 5 mM glucose + 10% dialyzed FBS, 0.00234 µM | 127 | 110 | 92.6
RPMI 5 mM glucose + 10% dialyzed FBS, 0.00702 µM | 112 | 113 | 104
RPMI 5 mM glucose + 10% dialyzed FBS, 0.0211 µM | 122 | 112 | 80.3
RPMI 5 mM glucose + 10% dialyzed FBS, 0.0632 µM | 123 | 120 | 107
RPMI 5 mM glucose + 10% dialyzed FBS, 0.19 µM | 126 | 123 | 106
RPMI 5 mM glucose + 10% dialyzed FBS, 0.569 µM | 122 | 117 | 111
RPMI 5 mM glucose + 10% dialyzed FBS, 1.71 µM | 110 | 122 | 107
RPMI 5 mM glucose + 10% dialyzed FBS, 5.12 µM | 108 | 119 | 98.4
RPMI 5 mM glucose + 10% dialyzed FBS, 15.4 µM | 124 | 129 | 99.6
RPMI 5 mM glucose + 10% dialyzed FBS, 46.1 µM | 119 | 134 | 113

AUC of viability dose-response curve
Settings | NOMO1 [4] | P12-Ichikawa [5] | SEM cells [6]
HPLM + 10% dialyzed FBS | 448 | 463 | 422
RPMI 5 mM glucose + 10% FBS | 443 | 440 | 429
RPMI 5 mM glucose + 10% dialyzed FBS | 472 | 428 | 454

— the supplement of paper PMC11451515
